Drawing on US20090247559A1 (Exelixis, Inc., priority 2007, published 2009), this text covers IC50 for 28 compounds.

The target of one experiment is CDC7 (Homo sapiens, UniProt O00311). The experiment is described as follows: CDC7 inhibition, biochemical chemiluminescence assay (Kinase Glo, IC50 determination). As to the method:
Characterization of CDC7 Inhibition in a Biochemical Chemiluminesence Assay (IC50 Determination):
The IC50 evaluation of compounds against the CDC7 enzyme was performed in a Chemiluminesence assay utilizing a Greiner 384-well white binding plate format. […] Upon addition of 10 μL of CDC-7 (GB) to the designated well plates and subsequent incubation for ten minutes at ambient temperature, 10 μL of ATP mix in Tris Base was added. Following an incubation period of 90 minutes at ambient temperature (24-27° C.), 20 μL of Kinase Glo (Promega) was added to measure kinase activity by quantitating the amount of ATP remaining in solution. The luminescence was measured following a Luciferase Protocol on either EnVision or Victor plate readers.

Another experiment concerns the target CK2 (Homo sapiens, UniProt P68400). The experiment is described as follows: CK2 inhibition, biochemical chemiluminescence holoenzyme assay (Kinase Glo, IC50 determination). The following applies: Table 1 activity class; symbol given only if active; read-out: CK2 IC50 (Activity C). The procedure, abridged:
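Holoenzyme CK2 assay; compounds pre-incubated with substrate and enzyme, then reacted 150 min at 24-27° C. Remaining ATP measured as luminescence with Kinase Glo, and IC50 derived from the signal.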

Experiment [1] deals with PIM (PIM-1, PIM-2, and/or PIM-3). The experiment is described as follows: PIM-1, PIM-2 and PIM-3 inhibition, biochemical chemiluminescence assays (Kinase Glo, IC50 determination). As to conditions: Table 1 activity class; PIM refers to PIM-1, PIM-2, and/or PIM-3; read-out: PIM IC50 (Activity B).
Where [2] appears, read: Table 1 activity class, symbol given only if active, read-out: CDC7 IC50 (Activity A).
The mark [3] stands for this setting: compounds in Table 1, read-out: CDC7 IC50 value.

Like-named read-outs stand apart in the source and are kept apart here. Where only a bound is given, the exact number is not on record here.

Sequence of CDC7 (O00311 whole entry): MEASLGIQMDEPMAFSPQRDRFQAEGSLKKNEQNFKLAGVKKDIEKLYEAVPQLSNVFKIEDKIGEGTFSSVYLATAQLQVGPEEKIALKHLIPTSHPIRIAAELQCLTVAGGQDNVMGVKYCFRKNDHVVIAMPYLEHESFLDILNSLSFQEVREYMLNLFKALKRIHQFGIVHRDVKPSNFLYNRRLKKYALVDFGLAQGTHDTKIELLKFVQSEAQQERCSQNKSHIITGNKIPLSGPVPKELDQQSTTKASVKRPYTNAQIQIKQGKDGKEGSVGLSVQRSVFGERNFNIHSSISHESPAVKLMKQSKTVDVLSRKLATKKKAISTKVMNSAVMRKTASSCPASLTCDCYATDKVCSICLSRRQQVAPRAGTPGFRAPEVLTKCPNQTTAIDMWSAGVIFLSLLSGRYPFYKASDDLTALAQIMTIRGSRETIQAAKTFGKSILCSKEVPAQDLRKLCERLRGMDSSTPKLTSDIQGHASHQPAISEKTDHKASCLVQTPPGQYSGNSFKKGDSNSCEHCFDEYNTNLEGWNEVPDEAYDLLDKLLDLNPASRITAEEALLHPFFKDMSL
Sequence of CDC7 (Q9UBU7 whole entry partner): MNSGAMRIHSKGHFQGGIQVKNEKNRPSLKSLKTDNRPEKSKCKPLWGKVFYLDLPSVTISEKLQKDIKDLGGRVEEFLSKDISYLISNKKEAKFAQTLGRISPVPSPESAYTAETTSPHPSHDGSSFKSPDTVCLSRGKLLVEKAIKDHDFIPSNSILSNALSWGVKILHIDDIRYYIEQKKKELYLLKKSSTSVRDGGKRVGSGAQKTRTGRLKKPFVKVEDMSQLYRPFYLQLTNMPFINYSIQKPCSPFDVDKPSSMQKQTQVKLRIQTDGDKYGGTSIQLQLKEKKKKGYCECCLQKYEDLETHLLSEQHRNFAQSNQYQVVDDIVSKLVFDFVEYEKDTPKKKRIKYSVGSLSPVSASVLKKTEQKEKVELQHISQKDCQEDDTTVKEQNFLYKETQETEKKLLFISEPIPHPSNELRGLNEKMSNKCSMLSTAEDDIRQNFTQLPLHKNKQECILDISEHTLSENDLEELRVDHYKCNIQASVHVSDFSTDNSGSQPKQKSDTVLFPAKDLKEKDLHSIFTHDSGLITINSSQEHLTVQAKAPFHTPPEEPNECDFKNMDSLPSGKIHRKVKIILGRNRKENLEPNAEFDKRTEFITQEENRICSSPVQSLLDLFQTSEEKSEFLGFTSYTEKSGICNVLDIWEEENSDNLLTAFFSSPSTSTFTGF
Sequence of CK2 (P68400 whole entry): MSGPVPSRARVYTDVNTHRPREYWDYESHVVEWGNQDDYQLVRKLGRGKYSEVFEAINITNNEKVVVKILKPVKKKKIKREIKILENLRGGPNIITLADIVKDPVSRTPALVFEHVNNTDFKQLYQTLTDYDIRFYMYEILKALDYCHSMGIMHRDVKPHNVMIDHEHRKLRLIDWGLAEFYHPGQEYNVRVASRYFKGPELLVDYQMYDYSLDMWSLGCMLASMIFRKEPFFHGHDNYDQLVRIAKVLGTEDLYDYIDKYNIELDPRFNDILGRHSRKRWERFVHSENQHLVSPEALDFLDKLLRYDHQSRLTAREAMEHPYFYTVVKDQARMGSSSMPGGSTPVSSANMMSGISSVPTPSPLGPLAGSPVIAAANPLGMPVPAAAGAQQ
Sequence of CK2 (P67870 whole entry partner): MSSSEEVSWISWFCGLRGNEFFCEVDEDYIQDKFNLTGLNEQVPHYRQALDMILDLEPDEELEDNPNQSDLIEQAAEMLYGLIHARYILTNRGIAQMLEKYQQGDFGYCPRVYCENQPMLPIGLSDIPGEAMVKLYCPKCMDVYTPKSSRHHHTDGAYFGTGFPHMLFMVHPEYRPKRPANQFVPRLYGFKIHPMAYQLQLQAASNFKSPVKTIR

Take `O=c1[nH]c(-c2ccccc2Cl)nc2c1oc1ccc(Br)cc12` [Compound 30, 8-Bromo-2-(2-chlorophenyl)[1]benzofuro[3,2-d]pyrimidin-4(3H)-one]: the 50% inhibitory concentration (IC50) on CDC7 (setting [2]) is less than 10 µM.
The same measure, in the same setting: with `COc1ccc2oc3c(=O)[nH]c(-c4ccccc4Cl)nc3c2c1` [Compound 32, 2-(2-Chlorophenyl)-8-(methyloxy)[1]benzofuro[3,2-d]pyrimidin-4(3H)-one] the figure was less than 10 µM.
Same read-out and setting: the same measure for `CN1C[C@@H]2C[C@H]1CN2Cc1nc2c(oc3ccc(Br)cc32)c(=O)[nH]1` [Compound 142, 8-bromo-2-{[(1S,4S)-5-methyl-2,5-diazabicyclo[2.2.1]hept-2-yl]methyl}[1]benzofuro[3,2-d]pyrimidin-4(3H)-one]: less than 10 µM.
In the case of `O=c1[nH]c(CN2CC(O)C2)nc2c1oc1ccc(Br)cc12` [Compound 183, 8-bromo-2-[(3-hydroxyazetidin-1-yl)methyl][1]benzofuro[3,2-d]pyrimidin-4(3H)-one], the results for the IC50 at CDC7 (setting [2]) and on CDC7 (setting [3]) were less than 10 µM and less than 0.1 µM, respectively.
`CN1C[C@@H]2CC[C@H]1CN2Cc1nc2c(oc3ccc(Br)cc32)c(=O)[nH]1` [Compound 330, 8-bromo-2-{[(1S,4S)-5-methyl-2,5-diazabicyclo[2.2.2]oct-2-yl]methyl}[1]benzofuro[3,2-d]pyrimidin-4(3H)-one]: the half-maximal inhibitory concentration (IC50) on CDC7 (setting [2]) is less than 10 µM.
On to `O=C(NCCN1CCCCC1)c1ccc(-c2nc3c(oc4ccc(Br)cc43)c(=O)[nH]2)c(Cl)c1` [Compound 383, 4-(8-bromo-4-oxo-3,4-dihydro[1]benzofuro[3,2-d]pyrimidin-2-yl)-3-chloro-N-(2-piperidin-1-ylethyl)benzamide], for which the 50% inhibitory concentration (IC50) on CDC7 (setting [2]) was less than 10 µM; at CDC7 (setting [3]) it was less than 0.1 µM.
For `O=c1[nH]c(-c2ccc3c(NCC4CCNCC4)n[nH]c3c2)nc2c1oc1ccc(Br)cc12` [Compound 441, 8-bromo-2-{3-[(piperidin-4-ylmethyl)amino]-1H-indazol-6-yl}[1]benzofuro[3,2-d]pyrimidin-4(3H)-one], the concentration for half-maximal inhibition (IC50) (on CK2; in experiment [1]) was less than 10 µM throughout.
Take `O=c1[nH]c(CN2CC[C@H](O)C2)nc2c1oc1ccc(NCc3ccccc3)cc12` [Compound 443, 2-{[(3S)-3-hydroxypyrrolidin-1-yl]methyl}-8-[(phenylmethyl)amino][1]benzofuro[3,2-d]pyrimidin-4(3H)-one]: the half-maximal inhibitory concentration (IC50) (at CK2; in experiment [1]) was less than 10 µM throughout.
Regarding `COc1cccc(CCNc2ccc3oc4c(=O)[nH]c(CN5CC[C@H](O)C5)nc4c3c2)c1OC` [Compound 445, 8-({2-[2,3-bis(methyloxy)phenyl]ethyl}amino)-2-{[(3S)-3-hydroxypyrrolidin-1-yl]methyl}[1]benzofuro[3,2-d]pyrimidin-4(3H)-one], the IC50 (at CK2; in experiment [1]) was less than 10 µM in each case.
For the compound `CCCCNc1ccc2oc3c(=O)[nH]c(CN4CC[C@H](O)C4)nc3c2c1` [Compound 446, 8-(butylamino)-2-{[(3S)-3-hydroxypyrrolidin-1-yl]methyl}[1]benzofuro[3,2-d]pyrimidin-4(3H)-one], the 50% inhibitory concentration (IC50) (at CK2; in experiment [1]) was less than 10 µM throughout.
On to `O=c1[nH]c(CN2CC[C@H](O)C2)nc2c1oc1ccc(C#CCO)cc12` [Compound 454, 8-(3-hydroxyprop-1-yn-1-yl)-2-{[(3S)-3-hydroxypyrrolidin-1-yl]methyl}[1]benzofuro[3,2-d]pyrimidin-4(3H)-one], for which the IC50 (at CK2; in experiment [1]) was less than 10 µM throughout.
On to `O=c1[nH]c(CN2CC[C@H](O)C2)nc2c1oc1ccc(CCCO)cc12` [Compound 455, 8-(3-hydroxypropyl)-2-{[(3S)-3-hydroxypyrrolidin-1-yl]methyl}[1]benzofuro[3,2-d]pyrimidin-4(3H)-one], for which the IC50 (on CK2; in experiment [1]) was less than 10 µM throughout.
With `O=c1[nH]c(CN2CC[C@H](O)C2)nc2c1oc1ccc(C#CCCCCO)cc12` [Compound 456, 8-(6-hydroxyhex-1-yn-1-yl)-2-{[(3S)-3-hydroxypyrrolidin-1-yl]methyl}[1]benzofuro[3,2-d]pyrimidin-4(3H)-one], the half-inhibitory concentration (IC50) (on CK2; in experiment [1]) was less than 10 µM in each case.
`O=c1[nH]c(CN2CC[C@H](O)C2)nc2c1oc1ccc(CCCCCCO)cc12` [Compound 457, 8-(6-hydroxyhexyl)-2-{[(3S)-3-hydroxypyrrolidin-1-yl]methyl}[1]benzofuro[3,2-d]pyrimidin-4(3H)-one]: the IC50 (on CK2; in experiment [1]) was less than 10 µM throughout.
For `Cc1ccccc1CNc1ccc2oc3c(=O)[nH]c(CN4CC[C@H](O)C4)nc3c2c1` [Compound 461, 2-{[(3S)-3-hydroxypyrrolidin-1-yl]methyl}-8-{[(2-methylphenyl)methyl]amino}[1]benzofuro[3,2-d]pyrimidin-4(3H)-one], the IC50 (on CK2; in experiment [1]) was less than 10 µM throughout.
As to `O=c1[nH]c(CN2CC[C@H](O)C2)nc2c1oc1ccc(NCc3ccccc3F)cc12` [Compound 462], the IC50 (on CK2; in experiment [1]) was less than 10 µM each time.
With `O=c1[nH]c(CN2CC[C@H](O)C2)nc2c1oc1ccc(NCc3ccccn3)cc12` [Compound 463, 2-{[(3S)-3-hydroxypyrrolidin-1-yl]methyl}-8-[(pyridin-2-ylmethyl)amino][1]benzofuro[3,2-d]pyrimidin-4(3H)-one], the half-maximal inhibitory concentration (IC50) (at CK2; in experiment [1]) was less than 10 µM in each case.
Consider `O=c1[nH]c(CN2CC[C@H](O)C2)nc2c1oc1ccc(NCc3cccc(C(F)(F)F)c3)cc12` [Compound 464, 2-{[(3S)-3-hydroxypyrrolidin-1-yl]methyl}-8-({[3-(trifluoromethyl)phenyl]methyl}amino)[1]benzofuro[3,2-d]pyrimidin-4(3H)-one], for which the IC50 (on CK2; in experiment [1]) was less than 10 µM each time.
For `O=c1[nH]c(CN2CC[C@H](O)C2)nc2c1oc1ccc(NCc3ccc(F)cc3F)cc12` [Compound 465, 8-{[(2,4-difluorophenyl)methyl]amino}-2-{[(3S)-3-hydroxypyrrolidin-1-yl]methyl}[1]benzofuro[3,2-d]pyrimidin-4(3H)-one], the half-maximal inhibitory concentration (IC50) (on CK2; in experiment [1]) was less than 10 µM each time.
Turning to `COc1ccccc1CNc1ccc2oc3c(=O)[nH]c(CN4CC[C@H](O)C4)nc3c2c1` [Compound 466, 2-{[(3S)-3-hydroxypyrrolidin-1-yl]methyl}-8-({[2-(methyloxy)phenyl]methyl}amino)[1]benzofuro[3,2-d]pyrimidin-4(3H)-one], the 50% inhibitory concentration (IC50) (on CK2; in experiment [1]) was less than 10 µM in each case.
In the case of `COc1cccc(CNc2ccc3oc4c(=O)[nH]c(CN5CC[C@H](O)C5)nc4c3c2)c1` [Compound 467, 2-{[(3S)-3-hydroxypyrrolidin-1-yl]methyl}-8-({[3-(methyloxy)phenyl]methyl}amino)[1]benzofuro[3,2-d]pyrimidin-4(3H)-one], the IC50 (at CK2; in experiment [1]) was less than 10 µM throughout.
On to `COc1ccc(CNc2ccc3oc4c(=O)[nH]c(CN5CC[C@H](O)C5)nc4c3c2)cc1` [Compound 468, 2-{[(3S)-3-hydroxypyrrolidin-1-yl]methyl}-8-({[4-(methyloxy)phenyl]methyl}amino)[1]benzofuro[3,2-d]pyrimidin-4(3H)-one], for which the 50% inhibitory concentration (IC50) (on CK2; in experiment [1]) was less than 10 µM in each case.
Turning to `O=c1[nH]c(CN2CC[C@H](O)C2)nc2c1oc1ccc(NCCc3cccc(F)c3)cc12` [Compound 472, 8-{[2-(3-fluorophenyl)ethyl]amino}-2-{[(3S)-3-hydroxypyrrolidin-1-yl]methyl}[1]benzofuro[3,2-d]pyrimidin-4(3H)-one], the IC50 (on CK2; in experiment [1]) was less than 10 µM in each case.
As to `O=c1[nH]c(CN2CC[C@H](O)C2)nc2c1oc1ccc(NCCc3cccc(C(F)(F)F)c3)cc12` [Compound 473, 2-{[(3S)-3-hydroxypyrrolidin-1-yl]methyl}-8-({2-[3-(trifluoromethyl)phenyl]ethyl}amino)[1]benzofuro[3,2-d]pyrimidin-4(3H)-one], the half-inhibitory concentration (IC50) (at CK2; in experiment [1]) was less than 10 µM each time.
As to `COc1ccc(CCNc2ccc3oc4c(=O)[nH]c(CN5CC[C@H](O)C5)nc4c3c2)cc1OC` [Compound 474, 8-({2-[3,4-bis(methyloxy)phenyl]ethyl}amino)-2-{[(3S)-3-hydroxypyrrolidin-1-yl]methyl}[1]benzofuro[3,2-d]pyrimidin-4(3H)-one], the IC50 (on CK2; in experiment [1]) was less than 10 µM throughout.
For the compound `O=c1[nH]c(CN2CC[C@H](O)C2)nc2c1oc1ccc(OCc3ccccc3)cc12` [Compound 475, 2-{[(3S)-3-hydroxypyrrolidin-1-yl]methyl}-8-[(phenylmethyl)oxy][1]benzofuro[3,2-d]pyrimidin-4(3H)-one], the IC50 (on CK2; in experiment [1]) was less than 10 µM in each case.
As for `CC(C)COc1ccc2oc3c(=O)[nH]c(CN4CC[C@H](O)C4)nc3c2c1` [Compound 477, 2-{[(3S)-3-hydroxypyrrolidin-1-yl]methyl}-8-[(2-methylpropyl)oxy][1]benzofuro[3,2-d]pyrimidin-4(3H)-one], the 50% inhibitory concentration (IC50) (at CK2; in experiment [1]) was less than 10 µM in each case.
On to `CCOC(=O)Cc1ccc2oc3c(=O)[nH]c(CN4CC[C@H](O)C4)nc3c2c1` [Compound 491, ethyl (2-{[(3S)-3-hydroxypyrrolidin-1-yl]methyl}-4-oxo-3,4-dihydro[1]benzofuro[3,2-d]pyrimidin-8-yl)acetate], for which the IC50 (on CK2; in experiment [1]) was less than 10 µM each time.
